These compounds were tested on OvCAR3 cells (assay: Cellular proliferation / Cytotoxicity assay (Alamar Blue)). Settings: Homo sapiens, OVCAR-3, 48h incubation, Alamar Blue (Resazurin) cell viability, read-out: Anti-proliferative / Cytotoxic activity (OvCAR3 cells).
Assay type: cell-based
Description: The anti-proliferative activity of the compounds as described herein, is evaluated using the OvCAR3, HCT116 and A549 cell lines and the Alamar Blue (Resazurin) cell viability assay (O'Brien et al. Eur J Biochem 267, 5421-5426, 2000). Resazurin is reduced to the fluorescent resorufin by cellular dehydrogenase activity, correlating with viable, proliferating cells. Test compounds are dissolved as 10 mM solutions in DMSO and subsequently diluted. Cells like HCT116 or A549 cells were seeded into 96 well flat bottom plates at a density of 10000 cells/well (OvCAR3 cells), 1000 cells/well (HCT116 cells) or 2000 cells/well (A549 cells) in a volume of 200 µl/well. 24 hours after seeding, 1 µl each of the compound dilutions are added into each well of the 96 well plates. Each compound dilution is tested as at least as duplicates. Wells containing untreated control cells were filled with 200 µl DMEM (Dulbecco's Modified Eagle Medium) containing 0.5vol% v:v DMSO. The cells are then incubated with the substances for 48h at 37°C in a humidified atmosphere containing 5vol% CO2. To determine the viability of the cells, 20 µl of a Resazurin solution (90mg / l) are added. After 4h incubation at 37°C, the fluorescence is measured by extinction at ? = 544 nm and an emission of ? = 590 nm (Wallac Victor2; Perkin Elmer, USA). For the calculation of the cell viability, the emission value from untreated cells is set as 100% viability and the fluorescence intensity of treated cells are set in relation to the values of untreated cells. Viabilities are expressed as % values. The corresponding IC50 values of the compounds for cytotoxic activity are determined from the concentration-effect curves by means of non-linear regression. The analysis of the data is performed using a biostatistical program (GraphPad Prism, USA). Representative IC50 values for anti-proliferative / cytotoxic potency determined in the aforementioned assay follow from the following table, in which the numbers of the compound correspond to the numbers of the examples.

Question: How did the IC50 turn out when `C=Cc1cnc2nc(-c3ccc(CN4CCC(c5n[nH]c(-c6ccccn6)n5)CC4)cc3)c(-c3ccccc3)cn12` [Example 15, 6-phenyl-7-(4-{[4-(5-pyridin-2-yl-1,2,4-triazol-3-yl)piperidin-1-yl]methyl}phenyl)-3-vinylimidazo[1,2-a]pyrimidine] was run?
Answer: < 1000 nM

Question: Which IC50 does the source give for `c1ccc(-c2cn3ncnc3nc2-c2ccc(CN3CCC(c4n[nH]c(-c5ccccn5)n4)CC3)cc2)cc1` [Example 2, 6-phenyl-5-(4-([4-(5-pyridin-2-yl-1,2,4-triazol-3-yl)piperidin-1-yl]methyl}phenyl)[1,2,4]triazolo[1,5-a]pyrimidine] here?
Answer: > 1000 nM

Question: With `c1ccc(-c2cn3nccc3nc2-c2ccc(CN3CCC(c4n[nH]c(-c5ccccn5)n4)CC3)cc2)cc1` [Example 19, 6-phenyl-5-(4-{[4-(5-pyridin-2-yl-1,2,4-triazol-3-yl)piperidin-1-yl]methyl}phenyl)pyrazolo[1,5-a]pyrimidine] as the compound, how does the IC50 read?
Answer: < 1000 nM

Question: For `CNc1c(-c2ccccc2)c(-c2ccc(CN3CCC(c4n[nH]c(-c5ccccn5)n4)CC3)cc2)nc2nccn12` [Example 10, N-methyl-6-phenyl-7-(4-{[4-(5-pyridin-2-yl-1,2,4-triazol-3-yl)piperidin-1-yl]methyl}phenyl)imidazo[1,2-a]pyrimidin-5-amine], which IC50 is on record?
Answer: > 1000 nM

Question: For `c1ccc(-c2cn3ccnc3nc2-c2ccc(CN3CCC(c4cc(-c5ccccn5)n[nH]4)CC3)cc2)cc1` [Example 5, 6-phenyl-7-(4-{[4-(3-pyridin-2-yl-pyrazol-5-yl)piperidin-1-yl]methyl}phenyl)imidazo[1,2-a]pyrimidine], which IC50 is on record?
Answer: > 1000 nM

Question: `c1ccc(-c2cn3nc(C4CCC4)nc3nc2-c2ccc(CN3CCC(c4n[nH]c(-c5ccccn5)n4)CC3)cc2)cc1` [Example 7, 2-cyclobutyl-6-phenyl-5-(4-{[4-(5-pyridin-2-yl-1,2,4-triazol-3-yl)piperidin-1-yl]methyl}phenyl)[1,2,4]triazolo[1,5-a]pyrimidine] was tested. Which IC50 did it give?
Answer: < 1000 nM

Question: For `c1ccc(-c2cn3ccnc3nc2-c2ccc(CN3CCC(c4n[nH]c(-c5ncccn5)n4)CC3)cc2)cc1` [Example 18, 6-phenyl-7-(4-{[4-(5-pyrimidin-2-yl-1,2,4-triazol-3-yl)piperidin-1-yl]methyl}phenyl)imidazo[1,2-a]pyrimidine], which IC50 is on record?
Answer: > 1000 nM

Question: How did the IC50 turn out when `Cc1cnc2nc(-c3ccc(CN4CCC(c5n[nH]c(-c6ccccn6)n5)CC4)cc3)c(-c3ccccc3)cn12` [Example 14, 3-methyl-6-phenyl-7-(4-{[4-(5-pyridin-2-yl-1,2,4-triazol-3-yl)piperidin-1-yl]methyl}phenyl)imidazo[1,2-a]pyrimidine] was run?
Answer: < 1000 nM

Question: How did the IC50 turn out when `c1ccc(-c2cn3nc(C4CC4)nc3nc2-c2ccc(CN3CCC(c4n[nH]c(-c5ccccn5)n4)CC3)cc2)cc1` [Example 4, 2-cyclopropyl-6-phenyl-5-(4-{[4-(5-pyridin-2-yl-1,2,4-triazol-3-yl)piperidin-1-yl]methyl}phenyl)[1,2,4]triazolo[1,5-a]pyrimidine] was run?
Answer: < 1000 nM

Question: `C#Cc1cnc2nc(-c3ccc(CN4CCC(c5n[nH]c(-c6ccccn6)n5)CC4)cc3)c(-c3ccccc3)cn12` [Example 13, 3-ethynyl-6-phenyl-7-(4-{[4-(5-pyridin-2-yl-1,2,4-triazol-3-yl)piperidin-1-yl]methyl}phenyl)imidazo[1,2-a]pyrimidine] was tested. Which IC50 did it give?
Answer: < 1000 nM

Question: `c1ccc(-c2cn3ccnc3nc2-c2ccc(CN3CCC(c4n[nH]c(-c5cnccn5)n4)CC3)cc2)cc1` [Example 21, 6-phenyl-7-(4-{[4-(5-pyrazin-2-yl-1,2,4-triazol-3-yl)piperidin-1-yl]methyl}phenyl)imidazo[1,2-a]pyrimidine] was tested. Which IC50 did it give?
Answer: > 1000 nM

Question: `c1ccc(-c2cn3ccnc3nc2-c2ccc(CN3CCC(c4nc(-c5ccccn5)n[nH]4)CC3)cc2)cc1` [Example 1, 6-phenyl-7-(4-{[4-(3-pyridin-2-yl-1,2,4-triazol-5-yl)piperidin-1-yl]methyl}phenyl)imidazo[1,2-a]pyrimidine] was tested. Which IC50 did it give?
Answer: > 1000 nM

Question: How did the IC50 turn out when `N#Cc1cnc2nc(-c3ccc(CN4CCC(c5n[nH]c(-c6ccccn6)n5)CC4)cc3)c(-c3ccccc3)cn12` [Example 8, 6-phenyl-7-(4-{[4-(5-pyridin-2-yl-1,2,4-triazol-3-yl)piperidin-1-yl]methyl}phenyl)imidazo[1,2-a]pyrimidine-3-carbonitrile] was run?
Answer: > 1000 nM

Question: How did the IC50 turn out when `CCc1cn2cc(-c3ccccc3)c(-c3ccc(CN4CCC(c5n[nH]c(-c6ccccn6)n5)CC4)cc3)nc2n1` [Example 17, 2-ethyl-6-phenyl-7-(4-{[4-(5-pyridin-2-yl-1,2,4-triazol-3-yl)piperidin-1-yl]methyl}phenyl)imidazo[1,2-a]pyrimidine] was run?
Answer: < 1000 nM

Question: Which IC50 does the source give for `c1ccc(-c2cn3ccnc3nc2-c2ccc(CN3CCC(n4cnc(-c5ccccn5)c4)CC3)cc2)cc1` [Example 20, 6-phenyl-7-(4-{[4-(4-pyridin-2-yl-imidazol-1-yl)piperidin-1-yl]methyl}phenyl)imidazo[1,2-a]pyrimidine] here?
Answer: > 1000 nM

Question: How did the IC50 turn out when `Fc1cnc2nc(-c3ccc(CN4CCC(c5n[nH]c(-c6ccccn6)n5)CC4)cc3)c(-c3ccccc3)cn12` [Example 9, 3-fluoro-6-phenyl-7-(4-{[4-(5-pyridin-2-yl-1H-1,2,4-triazol-3-yl)piperidin-1-yl]methyl}phenyl)imidazo[1,2-a]pyrimidine] was run?
Answer: < 1000 nM

Question: `CCc1cnc2nc(-c3ccc(CN4CCC(c5n[nH]c(-c6ccccn6)n5)CC4)cc3)c(-c3ccccc3)cn12` [Example 22, 3-ethyl-6-phenyl-7-(4-{[4-(5-pyridin-2-yl-1,2,4-triazol-3-yl)piperidin-1-yl]methyl}phenyl)imidazo[1,2-a]pyrimidine] was tested. Which IC50 did it give?
Answer: < 1000 nM

Question: With `Clc1cnc2nc(-c3ccc(CN4CCC(c5n[nH]c(-c6ccccn6)n5)CC4)cc3)c(-c3ccccc3)cn12` [Example 12, 3-chloro-6-phenyl-7-(4-{[4-(5-pyridin-2-yl-1,2,4-triazol-3-yl)piperidin-1-yl]methyl}phenyl)imidazo[1,2-a]pyrimidine] as the compound, how does the IC50 read?
Answer: < 1000 nM

Question: `Cc1nc2nc(-c3ccc(CN4CCC(c5n[nH]c(-c6ccccn6)n5)CC4)cc3)c(-c3ccccc3)cn2n1` [Example 3, 2-methyl-6-phenyl-5-(4-{[4-(5-pyridin-2-yl-1,2,4-triazol-3-yl)piperidin-1-yl]methyl}phenyl)[1,2,4]triazolo[1,5-a]pyrimidine] was tested. Which IC50 did it give?
Answer: < 1000 nM

Question: How did the IC50 turn out when `c1ccc(-c2cn3ccnc3nc2-c2ccc(CN3CCC(c4n[nH]c(-c5ccncc5)n4)CC3)cc2)cc1` [Example 6, 6-phenyl-7-(4-{[4-(5-pyridin-4-yl-1,2,4-triazol-3-yl)piperidin-1-yl]methyl}phenyl)imidazo[1,2-a]pyrimidine] was run?
Answer: > 1000 nM

Question: Which IC50 does the source give for `Brc1cnc2nc(-c3ccc(CN4CCC(c5n[nH]c(-c6ccccn6)n5)CC4)cc3)c(-c3ccccc3)cn12` [Example 11, 3-bromo-6-phenyl-7-(4-{[4-(5-pyridin-2-yl-1,2,4-triazol-3-yl)piperidin-1-yl]methyl}phenyl)imidazo[1,2-a]pyrimidine] here?
Answer: < 1000 nM

Reference: patent publication EP2050748A1, “Novel fused pyrimidines” (Bayer Schering Pharma Aktiengesellschaft, priority 2007, dated 2009)
